Reference: patent US11707557B2, “Compositions and devices incorporating water-insoluble therapeutic agents and methods of the use thereof” (COOK MEDICAL TECHNOLOGIES LLC, priority 2014, dated 2023)
≈ marks a conversion by molar mass, not a printed value.

Legend:
[1] = Drug concentrations obtained using EGCG at 50 mg per ml (microscopic check for particulates); type: physicochemical
Description: EGCG at 50 mg/ml and drug at approximately 250 micrograms per ml were dissolved in the listed solvent and dried down in a test tube under nitrogen. 1 ml of water was added, followed by vortexing. The solutions were examined for particulate matter under a microscope. If no particulates were present, the process was repeated with a higher drug amount. All the tested drugs remained in solution at the listed concentrations except for nystatin and hesperidin.

Caco2 cells = assay: Uptake and transfer of amphoterecin B into Caco2 cells; type: in vitro ADME, human; settings: 3 hours, versus ambisome
Description: Caco2 cells were seeded onto 0.3 um transwell membranes and treated as in Example 9. A solution of amphoterecin B (250 ug per ml) in EGCG (25 mg per ml), tannic acid (25 mg/ml) in Hanks buffer pH 7.4. or ambisome was added to the top well for 3 hours. The bottom reservoir was collected and treated as in Example 8.

[2] = Drug release from injectable PG:gallate pastes (60:40) into PBS; type: physicochemical; settings: 60:40 PG:EGCG or PG:tannic acid, 2% w/w drug, PBS pH 7.4, 37° C.
Description: Methods: 60:40% w/w PG:EGCG or PG:tannic acid was used in these studies. 588 mg of propylene glycol was weighed into a 20 mL glass vials and 392 of EGCG or tannic acid was added followed by vortexing to distribute and dissolve the gallates. The vials were warmed to 60° C. and vortexed until all the contents were in solution. At this time 20 mg of drug was added (2% w/w) and vortexed until in solution. The following drugs were used: paclitaxel, docetaxel, retinoic acid, amphotericin B, and curcumin. 100 mg of each paste was weighed into the base of a 15 mL glass test tube and 10 mL of phosphate buffered saline was added at pH 7.4 and the tubes were incubated at 37° C. for certain times. All 10 mL of the PBS release media was removed and 1 mL analyzed by HPLC for drug content. 10 mL of fresh PBS was then added to all tubes

[3] = 24 h
Description: (§1) PBS (EGCG) or water (tannic acid) was added and the final solution filtered through a 0.22 micron filter to remove any particulates. The solutions were analyzed for drug concentration using HPLC.
(§2) PBS (EGCG) or water (tannic acid) was added and the final solution filtered through a 0.22 micron filter to remove particulates. The solution was then analyzed for drug concentration using absorbance spectroscopy at 450 nm.
(§3) PBS (EGCG) or water (tannic acid) was added and the final solution was filtered through a 0.22 micron filter to remove any particulates and the solution was analyzed for drug concentration using HPLC.
(§4) PBS (EGCG) or water (tannic acid) was added and the final solution filtered through a 0.22 micron filter to remove any particulates and the solution was analyzed for drug concentration using HPLC.
(§5) PBS (EGCG) or water (Tannic acid) was added and the final solution was filtered through a 0.22 um filter to remove any particulates and the solution was analyzed for drug concentration using HPLC.
(§6) Method: drug and EGCG or tannic acid were dried down from acetonitrile (or methanol for tannic acid) solutions at various drug to EGCG or tannic acid ratios. PBS (EGCG) or water (Tannic acid pH adjusted to 7) was added and the final solution was filtered through a 0.22 um filter to remove any particulates and the solution was analyzed for drug concentration using HPLC methods.

physchem [4] = assay: physchem
Description: as §1, §2, §3, §4, §5, §6

physchem [5] = type: physicochemical; settings: for solubility: thermodynamic from solid
Description: Method: Solutions of finasteride and either EGCG or tannic acid at various weight percentages in ethanol were dried down under nitrogen. Water was added and the dried material suspended/dissolved. […] The pH of tannic acid solutions was brought up to 7 by the addition of NAOH.

[6] = Release of finasteride from PVA foam embolization particles and Embospheres; type: physicochemical
Description: Method: PVA foam embolization particles (Cook. Medical Bloomington Ind.) size 180-300 um. Vial of 220 mg split into two. 150 mg of EGCG with 10 mg of finasteride or 250 mg tannic acid with 1 mg of finasteride were dried as a common film from ethanol and solubilised in 1 ml of water and added to the 100 mg of PVA particles. Solutions were mixed for 30 minutes. At this time it was observed that all the EGCG or tannic acid color (pink or brown respectively) had disappeared from the solution and gone into the PVA which was now heavily colored. The solution was discarded and the PVA freeze dried. 10 mg of the EGCG formulation or 5 mg of the tannic acid formulation was added to 2 ml of PBS (pH 7.4) and the release of finasteride was measured over 2 weeks.
Embospheres: Syringe contents ((Embospheres 500-700 um Merit Medical S. Jordan Utah) were split into two and incubated in water solutions of finasteride (1 mg/ml in 35 mg of EGCG or tannic acid made up from dried films as above) for 30 minutes with shaking. At this time it was observed that all the EGCG or tannic acid color (pink or brown respectively) had disappeared from the solution and gone into the Embospheres which were no heavily colored. The solution was discarded. 20% of the resulting particles (still wet) were then placed in microcentrifuge tubes containing 2 ml of PBS and drug release was measured.

[7] = Release from PLGA microspheres +/- EGCG or tannic acid; type: physicochemical; settings: for drug released: first 20 days
Description: Method: The method involved pipetting a solution of the polymer PLGA (usually 20% w/v) and drug (usually 5% w/w to polymer) and EGCG (e.g. 20% w/w/ to polymer) in dichlomethane (DCM) (5 ml) into 100 ml of 2.5% PVA solution in water stirring at 450 rpm. The suspension was left stirring for 2 hours and the microspheres washed 4 times in distilled water. The microspheres were then dried under vacuum for 2 days. Drug encapsulation was measured by dissolving a known weight of microspheres in 1 ml of dichloromethane followed by immediate dilution to 10 ml in 60:40 acetonitrile/water. The amount of drug or EGCG in the top and bottom phase of this solution was measured using HPLC methods (mobile phase 58:37:5 Acetonitrile:water:methanol. 1 ml per min flow on a c18 column with detection at 232 nm)
Tannic acid: An alternative method was used, termed a water-in oil-in water emulsion. […] This forms a primary emulsion of water droplets in the PLGA solution stabilized by Span. When this emulsion was pipetted into the PVA solution the microspheres formed well. […] The microspheres were a light brown in color indicative of tannic acid encapsulation.
Methods: In these studies, 10 mg of microspheres were suspended in 2 ml of phosphate buffered saline (pH 7.4 10 mM phosphate) in microcentrifuge tubes and tumbled at 8 rpm at 37° C. The tubes were then centrifuged at 12000×g and the supernatants collected for drug analysis by HPLC. 2 ml of fresh PBS was then placed on top of the microspheres which were returned to the 37° C. oven for continued incubation with tumbling.
At the end of the study the residual mass of polymer and drug was dissolved in DCM and drug extracted into 60:40 acetonitrile:water to measure residual drug. The amounts of residual drug were 89% for plga alone (at 31 days), 16% for EGCG and 8% for tannic acid (both at 51 days) as expressed as a % of the original loading.

[8] = Liquid pharmaceutical excipients in gallate based pastes (solubility, viscosity score, pellet in water); type: physicochemical
Excerpt: Various additional water/soluble/miscible liquids were explored (in addition to propylene glycol and polyethylene glycol) as excipients in gallate based pastes.
A viscosity score was established as follows: 1) Fluid—22 gauge needle; 2) Semi Viscous—18 gauge needle; 3) Viscous—16 gauge needle; 4) Waxy Pellet in water.

[9] = aqueous with cosolvent or surfactant or cyclodextrin, thermodynamic from solid, drug concentration solubilised at maximum EGCG concentration

**Q.** For `C[C@@H]1[C@H](O)[C@@H](C)/C=C/C=C/C=C/C=C/C=C/C=C/C=C/[C@H](O[C@@H]2O[C@H](C)[C@@H](O)[C@H](N)[C@@H]2O)C[C@@H]2O[C@](O)(C[C@@H](O)C[C@@H](O)[C@H](O)CC[C@@H](O)C[C@@H](O)CC(=O)O[C@H]1C)C[C@H](O)[C@H]2C(=O)O` [amphotericin, amphotericin B], which Visual appearance [1] is on record?
**A.** clear

**Q.** What about the “Drug Concentration” value ([1]; 1 ml of water) of the same molecule?
**A.** 125 microgram/ml

**Q.** And the Particulates present ([1]; under a microscope)?
**A.** no

**Q.** What about the “drug uptake and transport through the cells” value (Caco2 cells; 250 ug per ml in EGCG 25 mg per ml) of the same molecule?
**A.** much higher levels

**Q.** And the “drug uptake and transport through the cells” value (Caco2 cells; 250 ug per ml in tannic acid 25 mg/ml)?
**A.** much higher levels

**Q.** What about the “drug release from PG:gallate paste” value [2] of the same molecule?
**A.** relatively controlled release of the drug over 24 hours

**Q.** What about the “stability of EGCG solutions of the drug” value [3] of the same molecule?
**A.** stable for 24 hours

**Q.** What about the “stability of tannic acid solutions of the drug” value [3] of the same molecule?
**A.** stable for 24 hours

**Q.** And the solubility (physchem [4]; [9])?
**A.** ~1800 µg/mL (≈ 1.95 mM)

**Q.** And the solubility (physchem [4]; aqueous with cosolvent or surfactant or cyclodextrin, thermodynamic from solid, drug concentration solubilised at maximum tannic acid concentration)?
**A.** ~5700 µg/mL (≈ 6.17 mM)

**Q.** And the solubility (physchem [4]; water, free solubility in water)?
**A.** 1 to 10 µg/mL (≈ 0.00108 to 0.0108 mM)

**Q.** With `CC(C)(C)NC(=O)[C@H]1CC[C@H]2[C@@H]3CC[C@H]4NC(=O)C=C[C@]4(C)[C@H]3CC[C@]12C` [finasteride] as the molecule, how does the stability of solutions (physchem [5]; 24 h) read?
**A.** stable over 24 hours

**Q.** What about the solubility (physchem [5]; aqueous with cosolvent or surfactant or cyclodextrin) of the same molecule?
**A.** > 10000 µg/mL

**Q.** What about the solubility (physchem [5]; pH 7, aqueous with cosolvent or surfactant or cyclodextrin) of the same molecule?
**A.** 8000 to 10000 µg/mL (≈ 21.5 to 26.8 mM)

**Q.** And the solubility (physchem [5]; water)?
**A.** 75 µg/mL (≈ 0.201 mM)

**Q.** And the finasteride release ([6]; PVA incubated with tannic acid/finasteride solution, PBS, in 3 days)?
**A.** 100%

**Q.** What about the “period of finasteride release” value ([6]; the other embolic particles (PVA with EGCG, Embospheres with EGCG or tannic acid)) of the same molecule?
**A.** over a two week period

**Q.** And the drug released ([7]; PLGA microspheres with EGCG)?
**A.** approx 80%

**Q.** And the drug released ([7]; PLGA microspheres with tannic acid)?
**A.** approx 80%

**Q.** And the encapsulated drug released ([7]; PLGA microspheres without EGCG or tannic acid, after 32 days)?
**A.** 7%

**Q.** What about the “residual drug as % of the original loading” value (“residual drug as %” below) ([7]; PLGA with EGCG, at 51 days) of the same molecule?
**A.** 16%

**Q.** What about the “residual drug as %” value ([7]; PLGA with tannic acid, at 51 days) of the same molecule?
**A.** 8%

**Q.** What about the “residual drug as %” value ([7]; plga alone, at 31 days) of the same molecule?
**A.** 89%

**Q.** And the “stability of EGCG solutions of the drug” value [3]?
**A.** stable for 24 hours

**Q.** What about the “stability of tannic acid solutions of the drug” value [3] of the same molecule?
**A.** stable for 24 hours

**Q.** And the solubility (physchem [4]; [9])?
**A.** ~11000 µg/mL (≈ 29.5 mM)

**Q.** And the solubility (physchem [4]; pH 7, aqueous with cosolvent or surfactant or cyclodextrin, thermodynamic from solid, drug concentration solubilised at maximum tannic acid concentration)?
**A.** ~10000 µg/mL (≈ 26.8 mM)

**Q.** For Tween 80, which “Solubility of EGCG in excipient” value [8] is on record?
**A.** 15%

**Q.** What about the “Solubility of tannic acid in excipient” value [8] of the same molecule?
**A.** 15%
